Results on 10 molecules are retold here after patent US6335366B2, “Naphthyloxy acetic acid derivatives and a pharmaceutical composition comprising them as an active ingredient” (Ono Pharmaceutical Co., Ltd., priority 1996, dated 2002).

For data set [1], the target named is T1, prostanoide receptor subtype (mouse EP3α) (Mus musculus, UniProt P30557).
T1 construct: expressed in transfected cells; host or cells: CHO cells (membrane fraction)
T1 sequence (P30557 1-365): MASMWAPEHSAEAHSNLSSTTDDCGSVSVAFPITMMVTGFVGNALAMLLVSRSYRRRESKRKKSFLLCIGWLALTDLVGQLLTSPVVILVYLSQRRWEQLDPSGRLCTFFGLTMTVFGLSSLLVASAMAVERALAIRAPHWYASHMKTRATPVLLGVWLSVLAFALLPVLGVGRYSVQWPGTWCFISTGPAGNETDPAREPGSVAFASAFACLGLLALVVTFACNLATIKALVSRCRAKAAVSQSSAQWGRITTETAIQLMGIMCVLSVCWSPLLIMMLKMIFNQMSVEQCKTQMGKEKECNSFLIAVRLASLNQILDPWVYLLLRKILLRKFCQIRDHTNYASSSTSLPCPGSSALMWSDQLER
The data set can be described thus: Binding assay using expression cell of prostanoide receptor subtype ([3H]-PGE2 competition, CHO cell membrane fraction). As to conditions: [3H]-PGE2 2.5 nM; membrane fraction of CHO cells expressing mouse EP3α; Ki = IC50/(1+([C]/Kd)); read-out: dissociation constant Ki. On the procedure: For example, in standard laboratory test, the effects of the compounds of the present invention were confirmed by inhibitory effect on binding PGE2 using expression cell of receptor.
(I) Binding Assay using Expression Cell of Prostanoide Receptor Subtype
The preparation of membrane fraction was carried out according to the method of Sugimoto et al (J. Biol. Chem. 267, 6463-6466 (1992)), using expression CHO cell of prostanoide receptor subtype (mouse EP3α).
The standard assay mixture contained membrane fraction (0.5 mg/ml), [^3H]-PGE2 in a final volume of […] was incubated for 1 hour at room temperature. The reaction was terminated by addition of 3 ml of ice-cold buffer. The mixture was rapidly filtered through a glass filter (GF/B). The radioactivity associated with the filter was measured by liquid scintillation counting.
Kd and Bmax values were determined from Scatchard plots (Ann. N.Y. Acad. Sci., 51, 660 (1949)). Non-specific binding was calculated as the bond in the presence of an excess ([…]) of unlabeled PGE2. In the experiment for competition of specific [^3H]-PGE2 binding by the compounds of the present invention, [^3H]-PGE2 was added at a concentration of 2.5 nM and the compounds of the present invention were at a concentration of 1 mM. Buffer: 10 mM potassium phosphate (pH6.0), 1 mM EDTA, 10 mM MgCl2, 0.1 M NaCl.
The dissociation constant Ki (μM) of each compound was calculated by the following equation.

For orientation: Ki means the dissociation constant of the complex between target and ligand, obtained from inhibition or displacement. By melting point is commonly meant the temperature of the solid-liquid transition.

For `O=C(O)COc1cccc2c(CCS(=O)(=O)CC(O)COc3ccccc3)cccc12` (stereo not shown) [3(2), 2-{5-[2-(2RS-Hydroxy-3-phenoxypropylsulfonyl)ethyl]-1-naphthyloxy}acetic Acid], in data set [1], the inhibition constant Ki worked out at 9.9 nM.

In turn, `O=C(O)COc1cccc2c(CCSC[C@H](O)COc3ccccc3)cccc12` [3(3), 2-{5-[2-(2R-Hydroxy-3-phenoxypropylthio)ethyl]-1-naphthyloxy}acetic Acid] registered a melting point of 114 to 115.5 °C. Same read-out and setting: with `O=C(O)COc1cccc2c(CCSCC(O)COc3ccccc3)cccc12` (stereo not drawn) [3(4), 2-{5-[2-(2S-Hydroxy-3-phenoxypropylthio)ethyl]-1-naphthyloxy}acetic Acid] the figure was 114 to 115.5 °C. On the same count and under the same terms, under `O=C(O)COc1cccc2c(CSCC(O)COc3ccccc3)cccc12` (stereo not shown) [3(5), 2-[5-(2RS-Hydroxy-3-phenoxypropylthio)methyl-1-naphthyloxy]acetic Acid] stands 105 to 107 °C. On to `O=C(O)COc1cccc2c(C[S+]([O-])CC(O)COc3ccccc3)cccc12` (stereo not shown) [3(6), 2-[5-(2RS-Hydroxy-3-phenoxypropylsulfinyl)methyl-1-naphthyloxy]acetic Acid], for which the inhibition constant Ki in data set [1] came to 150 nM. The molecule `O=C(O)COc1cccc2c(CS(=O)(=O)CC(O)COc3ccccc3)cccc12` (stereo not shown) [3(7), 2-[5-(2RS-Hydroxy-3-phenoxypropylsulfonyl)methyl-1-naphthyloxy]acetic Acid] registered a melting point of 186 to 190 °C. As to `O=C(O)COc1cccc2c(CCCSCC(O)c3ccccc3)cccc12` (stereo not shown) [3(8), 2-{5-[3-(2RS-Hydroxy-2-phenylethylthio)propyl]-1-naphthyloxy}acetic Acid], in data set [1], the Ki amounted to 2000 nM. On the same count and under the same terms, under `O=C(O)COc1cccc2c(CCCS(=O)(=O)/C=C/c3ccccc3)cccc12` [5(1), 2-[5-(3-Styrylsulfonylpropyl)-1-naphthyloxy]acetic Acid] stands 8.6 nM; under `O=C(O)COc1cccc2c(CCSCC(O)COc3ccccc3)cccc12` (stereo not shown) [compound 3], 48 nM; under `O=C(O)COc1cccc2c(CCC[S+]([O-])/C=C/c3ccccc3)cccc12` (stereo not shown) [compound 5], 80 nM.
